This is an account of results in US6887873B2, “Triazine derivatives and their application as antitelomerase agents” (Aventis Pharma S.A., priority 2001, dated 2005).

In test [1] the test system is G-quadruplex of oligonucleotide GGGTTAGGGTTAGGGTTAGGG (3.5 repeats of the human telomereic motif). The experiment in a line: G-quadruplex stabilizing activity, fluorescence Tm (FAM+DABCYL oligonucleotide). It counts as binding. The procedure, abridged:
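FAM/DABCYL-labelled telomeric oligonucleotide (0.2 μM strand) in 10 mM sodium cacodylate pH 7.6 with 0.1 M LiCl (or NaCl) was annealed, then incubated ≥1 h at 20 °C with compound at 1 μM final. Samples were heated 20→80 °C, with excitation at 470 nm and emission at 515/588 nm. Tm is the 515 nm emission midpoint.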

The subject of test [2] is human telomerease (HL60 cell extract). The experiment in a line: Antitelomerease activity: extension of oligonucleotide TS followed by PCR amplification, with HL60 extract. It counts as biochemical. The note with it: read-out: TRAP IC50. The procedure, abridged: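 HL60 CHAPS-lysate extract extends TS primer (15 min, 30 °C) with compound at 10, 1, 0.1 and 0.01 µM, followed by 30-cycle PCR with TS and CXext. Products resolved on 12% acrylamide and quantified; % inhibition versus enzyme control and blank, IC50 read from semilog plot.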

Usually IC50 stands for the concentration that inhibits the measured activity by half. With `Cc1cc(N)c2cc(Nc3nc(Nc4ccc5nc(C)cc(N)c5c4)nc(Nc4ccc5nc(C)cc(N)c5c4)n3)ccc2n1` [Example 2, 2,4,6-tris(4-amino-2-methylquinolin-6-yl)amino-[1,3,5]triazine], the “G4 delta Tm” value in test [1] is 18 °C. Further, the 50% inhibitory concentration (IC50) in test [2] amounted to 60 nM.

Take `COc1cccc(Oc2nc(Nc3ccc4nc(C)cc(N)c4c3)nc(Nc3ccc4nc(C)cc(N)c4c3)n2)c1` [Example 104]: in test [1], the “G4 delta Tm” value was found to be 4.5 °C. For the same compound, the IC50 in test [2] was 1200 nM.

`Cc1cc(N(C)C)c2cc(Nc3nc(Nc4ccncc4)nc(Nc4ccc5nc(C)cc(N(C)C)c5c4)n3)ccc2n1` [Example 18]: in test [1], the “G4 delta Tm” value came to 2.4 °C. In addition, the half-maximal inhibitory concentration (IC50) in test [2] is 1200 nM.

With `Cc1cc(N(C)C)c2cc(Nc3nc(NCCN4CCN(Cc5ccccc5)CC4)nc(Nc4ccc5nc(C)cc(N(C)C)c5c4)n3)ccc2n1` [Example 140], the “G4 delta Tm” value in test [1] is 5.5 °C. For the same compound, the concentration for half-maximal inhibition (IC50) in test [2] was determined as 1000 nM.

Consider `Cc1cc(N(C)C)c2cc(Nc3nc(NCC[N+](C)(C)C)nc(Nc4ccc5nc(C)cc(N(C)C)c5c4)n3)ccc2n1` [Example 142], for which, in test [1], the “G4 delta Tm” value was found to be 9.5 °C. Moreover, the IC50 in test [2] stood at 1000 nM.

With `Cc1cc(N)c2cc(Nc3nc(Nc4ccc5nc(C)cc(N)c5c4)nc(N(Cc4ccccc4)C4CN5CCC4CC5)n3)ccc2n1` (stereo not shown) [Example 92], the “G4 delta Tm” value in test [1] was determined as 3.5 °C. The IC50 in test [2] was found to be 430 nM.

Regarding `Cc1cc(N)c2cc(Nc3nc(Nc4ccc5nc(C)cc(N)c5c4)nc(N4CCN(C5CCCC5)CC4)n3)ccc2n1` [Example 43], in test [1], the “G4 delta Tm” value is 18 °C. The IC50 in test [2] was 180 nM.

`Cc1cc(N)c2cc(Nc3nc(Nc4ccc5nc(C)cc(N)c5c4)nc(N4CCCC4c4cccnc4)n3)ccc2n1` (stereo not shown) [Example 86]: the “G4 delta Tm” value in test [1] amounted to 6 °C. Moreover, in test [2], the half-maximal inhibitory concentration (IC50) was found to be 200 nM.

Regarding `Cc1cc(N)c2cc(Nc3nc(Nc4ccc(N5CCNCC5)cc4)nc(Nc4ccc5nc(C)cc(N)c5c4)n3)ccc2n1` [Example 15], the “G4 delta Tm” value in test [1] was found to be 2.7 °C. The IC50 in test [2] came to 190 nM.

`Cc1cc(N(C)C)c2cc(Nc3nc(NCc4ccncc4)nc(Nc4ccc5nc(C)cc(N(C)C)c5c4)n3)ccc2n1` [Example 27, 2,4-bis(4-dimethylamino-2-methylquinolin-6-yl)amino-6-(pyridin-4-yl)methylamino-[1,3,5]triazine]: in test [1], the “G4 delta Tm” value worked out at 11.0 °C. Moreover, the IC50 in test [2] was found to be 600 nM.

Turning to `CCN(CCN(C)C)c1nc(Nc2ccc3nc(C)cc(N(C)C)c3c2)nc(Nc2ccc3nc(C)cc(N(C)C)c3c2)n1` [Example 146], in test [1], the “G4 delta Tm” value amounted to 6 °C. For the same compound, the IC50 in test [2] was found to be 600 nM.

In the case of `CC(=O)NCCNc1nc(Nc2ccc3nc(C)cc(N(C)C)c3c2)nc(Nc2ccc3nc(C)cc(N(C)C)c3c2)n1` [Example 150], the “G4 delta Tm” value in test [1] worked out at 6.5 °C. Besides, the IC50 in test [2] came to 2500 nM.

Take `Cc1cc(N)c2cc(Nc3nc(NCc4ccc([N+](C)(C)C)cc4)nc(Nc4ccc5nc(C)cc(N)c5c4)n3)ccc2n1` [Example 60]: the “G4 delta Tm” value in test [1] came out at 6 °C. Also, in test [2], the IC50 was determined as 3000 nM.

Consider `Cc1cc(N)c2cc(Nc3nc(Nc4ccc5nc(C)cc(N)c5c4)nc(Sc4ncccn4)n3)ccc2n1` [Example 126], for which, in test [1], the “G4 delta Tm” value was found to be 19 °C. Moreover, the IC50 in test [2] was 670 nM.

Take `CCN(CCNc1nc(Nc2ccc3nc(C)cc(N(C)C)c3c2)nc(Nc2ccc3nc(C)cc(N(C)C)c3c2)n1)c1cccc(C)c1` [Example 28]: the “G4 delta Tm” value in test [1] was 10.6 °C. For the same compound, the 50% inhibitory concentration (IC50) in test [2] was determined as 900 nM.

On to `Cc1cc(C)nc(Sc2nc(Nc3ccc4nc(C)cc(N)c4c3)nc(Nc3ccc4nc(C)cc(N)c4c3)n2)n1` [Example 127], for which the “G4 delta Tm” value in test [1] turned out to be 14 °C. In addition, the IC50 in test [2] came to 840 nM.

Regarding `Cc1cc(N)c2cc(Nc3nc(Nc4ccc5nc(C)cc(N)c5c4)nc(Sc4ccccc4Cl)n3)ccc2n1` [Example 118], the “G4 delta Tm” value in test [1] is 3.5 °C. Besides, the IC50 in test [2] came out at 1400 nM.

On to `Cc1cc(N)c2cc(Nc3nc(Nc4ccc5nc(C)cc(N)c5c4)nc(NC4CCN(Cc5ccccc5)CC4)n3)ccc2n1` [Example 93], for which, in test [1], the “G4 delta Tm” value turned out to be 8 °C. In test [2], the IC50 came to 370 nM.

For the compound `CC1=NCCN1c1nc(Nc2ccc3nc(C)cc(N(C)C)c3c2)nc(Nc2ccc3nc(C)cc(N(C)C)c3c2)n1` [Example 148], the “G4 delta Tm” value in test [1] came out at 12 °C. Also, the half-maximal inhibitory concentration (IC50) in test [2] came to 1500 nM.

As to `Cc1cc(N(C)C)c2cc(Nc3nc(Nc4ccc5nc(C)cc(N(C)C)c5c4)nc(N4CCCN(C)CC4)n3)ccc2n1` [Example 135, 2,4-bis(4-dimethylamino-2-methylquinolin-6-yl)amino-6-(1-methylhomopiperazin-4-yl)-[1,3,5]triazine], the “G4 delta Tm” value in test [1] turned out to be 20 °C. Besides, the concentration for half-maximal inhibition (IC50) in test [2] was 400 nM.

As for `Cc1cc(N)c2cc(Nc3nc(Nc4ccc5nc(C)cc(N(C)C)c5c4)nc(Nc4ccccc4Cl)n3)ccc2n1` [Example 3], in test [1], the “G4 delta Tm” value stood at 5.5 °C. In addition, in test [2], the IC50 is 2100 nM.

As for `Cc1cc(N(C)C)c2cc(Nc3nc(Nc4ccc5nc(C)cc(N(C)C)c5c4)nc(N4CCN(CCCN(C)C)CC4)n3)ccc2n1` [Example 136, 2,4-bis(4-dimethylamino-2-methylquinolin-6-yl)amino-6-[1-(3-dimethylaminopropyl)piperazin-4-yl]-[1,3,5]triazine], the “G4 delta Tm” value in test [1] was found to be 20.5 °C. Besides, the IC50 in test [2] came out at 120 nM.

In the case of `Cc1cc(N(C)C)c2cc(Nc3nc(Nc4ccc5nc(C)cc(N(C)C)c5c4)nc(N(C)C4CCN(C)CC4)n3)ccc2n1` [Example 138, 2,4-bis(4-dimethylamino-2-methylquinolin-6-yl)amino-6-[N-(1-methylpiperidin-4-yl)-N-methylamino]-[1,3,5]triazine], the “G4 delta Tm” value in test [1] stood at 16 °C. Moreover, the concentration for half-maximal inhibition (IC50) in test [2] amounted to 500 nM.

`Cc1cc(N(C)C)c2cc(Nc3nc(Nc4ccc5nc(C)cc(N(C)C)c5c4)nc(N4CCN(C)CC4)n3)ccc2n1` [Example 20, 2,4-bis(4-dimethylamino-2-methylquinolin-6-yl)amino-6-(4-methylpiperazin-1-yl)-[1,3,5]triazine]: in test [1], the “G4 delta Tm” value was 6.4 °C. For the same compound, the IC50 in test [2] is 440 nM.

For `Cc1cc(N)c2cc(Nc3nc(Nc4ccc5nc(C)cc(N)c5c4)nc(Sc4ccc5ccccc5n4)n3)ccc2n1` [Example 128, 2,4-bis(4-amino-2-methylquinolin-6-yl)amino-6-(quinolin-2-yl)thio-[1,3,5]triazine], in test [1], the “G4 delta Tm” value was found to be 15 °C. The IC50 in test [2] turned out to be 390 nM.

Turning to `Cc1cc(N(C)C)c2cc(Nc3nc(NCc4ccncc4)nc(Nc4ccc5nc(C)cc(N(C)C)c5c4)n3)ccc2n1` [Example 145], in test [1], the “G4 delta Tm” value turned out to be 5 °C. Further, the IC50 in test [2] stood at 1000 nM.

On to `Cc1cc(N(C)C)c2cc(Nc3nc(Nc4ccc5nc(C)cc(N(C)C)c5c4)nc(N4CCC[C@H]4CN4CCCC4)n3)ccc2n1` [Example 149, 2,4-bis(4-dimethylamino-2-methylquinolin-6-yl)amino-6-[2(S)-(pyrrolidin-1-yl)methylpyrrolidin-1-yl]-[1,3,5]triazine], for which, in test [1], the “G4 delta Tm” value is 12.5 °C. In addition, in test [2], the half-maximal inhibitory concentration (IC50) was found to be 2500 nM.

As for `Cc1cc(N)c2cc(Nc3nc(Nc4ccc5nc(C)cc(N)c5c4)nc(NC4CCN(Cc5ccccc5)C4)n3)ccc2n1` (stereo not shown) [Example 41], in test [1], the “G4 delta Tm” value amounted to 19 °C. The half-maximal inhibitory concentration (IC50) in test [2] worked out at 360 nM.

In the case of `Cc1cc(N)c2cc(Nc3nc(Nc4ccc5nc(C)cc(N)c5c4)nc(Sc4ccccn4)n3)ccc2n1` [Example 120], the “G4 delta Tm” value in test [1] is 11.5 °C. Also, in test [2], the IC50 was 380 nM.
